Laboratory results: US20090099218A1, “SYNTHESIS OF NOVEL TUBULIN POLYMERIZATION INHIBITORS: BENZOYLPHENYLUREA (BPU) SULFUR ANALOGS” (priority 2007, published 2009)

Experiments:
Panc1005 = assay: MTT growth inhibition, pancreatic cell line Panc1005; type: cell-based; settings: MTT assay, 96 h treatment, average of three independent experiments
Experimental: (§1) Eight of these analogs 6d, 6h, 6n, 6g, 7b, 7d, 8g, and 8h were tested for their cytotoxicity in seven pancreatic cell lines ASPC1, Panc1, Panc203, Panc430, Pane 1005, MiaPaca2, and HS766T using MTT assay. Cells were trypsinized, seeded at 5×10^3 cells/well in 96-well plate and allowed to grow for 24 hours before the treatment with exponential increasing concentrations of drugs in the presence of 10% FBS. After a 96-hours period of treatment, 20 μl of MTT solution (5 mg/ml in PBS) were added to each well, and the plates were then incubated for 3 hours at 37° C. Medium was then replaced with 100 μl of DMSO per well. Plates were shaken and the optical density was measured at 570 nm using a multiwell plate reader (Bio-Rad, Model 550, Bio-Rad Inc., Hercules, Calif.). Each experiment was performed in triplicate for each drug concentration and was carried out independently at least 3 times. The IC50 value was defined as the concentration needed for a 50% reduction in the absorbance calculated based on the survival curves. Response to drug treatment was assessed by standardizing treatment groups to untreated controls. Compounds activity was compared with compound 1.
(§2) Table 2 (Growth Inhibition of Pancreatic Cancer Cell Lines by BPU and BPTU Analogues (IC50) a) compares the cytotoxicity of a series of new derivatives against a panel of seven pancreatic cancer cell lines, as determined by MTT assay. See, Mosmann, T., J. Immunol. Methods 65:55-63 (1983).

Panc203 = assay: MTT growth inhibition, pancreatic cell line Panc203; type: cell-based; settings: MTT assay, 96 h treatment, average of three independent experiments
Experimental: as §1, §2

HS766 = assay: MTT growth inhibition, pancreatic cell line HS766; type: cell-based; settings: MTT assay, 96 h treatment, average of three independent experiments
Experimental: as §1, §2

Panc430 = assay: MTT growth inhibition, pancreatic cell line Panc430; type: cell-based; settings: MTT assay, 96 h treatment; average of three independent experiments
Experimental: as §1, §2

Panc1 = assay: MTT growth inhibition, pancreatic cell line Panc1; type: cell-based; settings: MTT assay, 96 h treatment, average of three independent experiments
Experimental: as §1, §2

ASPC1 = assay: MTT growth inhibition, pancreatic cell line ASPC1; type: cell-based; settings: MTT assay, 96 h treatment, average of three independent experiments
Experimental: as §1, §2

Miapaca2 = assay: MTT growth inhibition, pancreatic cell line Miapaca2; type: cell-based; settings: MTT assay, 96 h treatment, average of three independent experiments
Experimental: as §1, §2

LnCaP = assay: MTT growth inhibition, prostate cancer cell line LnCaP; type: cell-based, human; settings: MTT assay; average of three independent experiments
Experimental: (§3) This MTT assay was carried using human prostate cancer cell lines CWR22R, LAPC-4 and LnCap using Promega cell titer 96 nonradioactive cell proliferation kits. Cells were trypsinized and centrifuged at 1000 rpm for 5 minutes and the supernatant was aspirated. Cells were resuspended with HBSS to a concentration of 10^6/ml. Cell suspension was diluted in serum containing medium to plate 2000 cells/well/0.2 ml. Cell suspension was transferred to sterile solution basin. Cells were plated using multichannel pipette set at 200 μl and incubated overnight for attachment. One plate was prepared for day 0 MTT assay as follows: 100 μl of media was removed from each well using multichannel pipette and 15 μl of MTT reagent was added. Plates were incubated at 37° C. for 4 hrs. […] of STOP solution was added to each well and incubated at room temperature for 1 hour. Absorbance was measured at 570 and 650 nm on plate reader. All the media from the remaining plates were carefully removed and the cells were treated with the media containing drug. MTT assays were done on days 0, 3, 5 and 7. In the preliminary screening […] BPU sulfur analogs 6l, 6h, 6n, 7d and 8h were screened and their activity was compared with compound 1.
(§4) Compounds with significant inhibitory activity in pancreatic cancer cells were further evaluated against prostate cancer cell lines in the MTT assay, (Mosmann, T., J. Immunol. Methods 65:55-63 (1983)) and the results were compared to those for compound 1 (Table 3).

tubulin [1] = assay: Inhibition of tubulin polymerization; type: biochemical; settings: Tubulin was at 10 μM; read-out: tubulin IC50 ± SD (inhibition of tubulin polymerization)
Experimental: Briefly, tubulin polymerization was followed turbidimetrically at 350 nm in Beckman model DU7400 and DU7500 recording spectrophotometers equipped with electronic temperature controllers. […] Samples were pre-incubated for 15 min at 30° C. and chilled on ice. GTP (final concentration, 0.4 mmol/L) was added to each reaction mixture, and these were placed in cuvettes held at 0° C. Baselines were established, the temperature was raised to 30° C.

LAPC-4 = assay: MTT growth inhibition, prostate cancer cell line LAPC-4; type: cell-based, human; settings: MTT assay; average of three independent experiments
Experimental: as §3, §4

CWR22R = assay: MTT growth inhibition, prostate cancer cell line CWR22R; type: cell-based, human; settings: MTT assay; average of three independent experiments
tubulin [2] = assay: Inhibition of [3H]colchicine binding; settings: Tubulin 1 μM; [3H]colchicine and inhibitor at 5 μM
[3] = tested on: seven pancreatic cell lines; assay: MTT cytotoxicity, panel of seven pancreatic cancer cell lines; type: cell-based; settings: Pancreatic cancer cell, all seven pancreatic cell lines
Experimental: as §1, §2

[4] = tested on: pancreas cancer xenografts; assay: In vivo growth inhibition of patient-derived pancreas cancer xenografts; design: species or system athymic nude mice
Experimental: Six-week-old female athymic nude mice (Harlan) were used. The research protocol was approved by the Johns Hopkins University Animal Care and Use Committee, and animals were maintained in accordance to guidelines of the American Association of Laboratory Animal Care. Surgical non-diagnostic specimens from patients who had undergone surgery at the Johns Hopkins Hospital were implanted s.c. in one to two mice for each patient, with two small pieces per mouse (F1 generation). Tumors were grown to 1.5 cm^3 and then harvested, divided into small ˜3×3×3 mm pieces, and transplanted to another five mice, with two tumors per mouse (F2 generation). After a second growth passage, tumors were excised and propagated to cohorts of ≧20 mice. These groups constituted the F3, or treatment cohort. Tumors from this third mouse-to-mouse passage were allowed to grow to ˜200 mm3, at which time mice were randomized into three treatment groups, with five to six mice (10 evaluable tumors) in each group: control (vehicle), 6n (50 mg/kg i.p. twice per week), and 7d (50 mg/kg i.p. twice per week). Docetaxel treatment was given to selected groups at a dose of 30 mg/kg i.p. once a week for 2 weeks. Mice were monitored daily for signs of toxicity and were weighed thrice per week. Tumor size was evaluated twice per week by caliper measurements using the following formula: tumor volume=[length×width^2]/2. Relative tumor growth inhibition was calculated by relative tumor growth of treated mice divided by relative tumor growth of control mice from the onset of therapy (T/C).
To assess the treatment effect, a hierarchical linear regression model was used with random intercepts and fixed slopes. Based on the results of exploratory plots, the assumption of fixed effects for slopes seemed reasonable. This model allowed for mouse effects to be nested within patient effects so that the hierarchical structure is fully accounted for. Specifically, the following linear regression model was fitted: log(γiJt)=a1ijtimeijt+b2jtimeijt×trtij+βtime^2ijt+eijt where j indexes patient, i indexes mouse, and t indexes time; yijt is the percentage change in tumor volume (compared with day 0) in mouse i, which is a xenograft for patient j at time t; and trtij is treatment (1=treated, 0=control) received by mouse i, which is a xenograft for patient j. […] An intercept and main effect of treatment were not included in the model that makes two assumptions: (a) at time 0, the change from baseline is 0 (which is empirically true), and (b) at baseline, the treated and untreated curves intersect. The model was fit using Win-Bugs software that estimates models using a Markov chain Monte Carlo estimation procedure. A burn-in of 10,000 iterations was done, and then the chain was run for an additional 20,000 iterations, of which every 10th iteration was saved for inference. Several chains were run with different starting values to ensure convergence. No convergence issues arose. The fitted model was used to make inferences with respect to the treatment effect and to create fitted regression lines (rescaled on the Y-axis for clearer interpretation). Point estimates of variables of interest (e.g., expected difference in tumor volume between treated and control at 28 days) and 95% credible intervals were based on the mean of posterior distributions and the 2.5th and 97.5th quantiles of the posterior distribution, respectively. The comparisons between means and proportions obtained from the biological studies were done using Student's t-test and χ^2 method, respectively. ANOVA was used when three or more variables were compared.
Tumors from nine cases of pancreatic cancer were used to establish xenografts in nude mice, and the animals were treated with either vehicle, 6n, or 7d (FIG. 36A). The level of efficacy varied both between drugs and within cases treated with each drug. FIG. 37 provides an integrated summary of all data points obtained in the studies. […]

| IC50 (Panc1005; Homo sapiens, Panc1005) [µM] | IC50 (Panc203; Homo sapiens, Panc203) [µM] | IC50 (Panc430) [µM] | IC50 (Panc1; Homo sapiens, PANC-1) [µM] | IC50 (ASPC1; Homo sapiens, ASPC1) [µM] | IC50 (Miapaca2; Homo sapiens, MIA PaCa-2) [µM] | Compound | IC50 (HS766; Homo sapiens, Hs 766) [µM] | IC50 (Panc1005) [µM] | IC50 (LnCaP) [µM] | IC50 (Panc203) [µM] | IC50 (HS766) [µM] | IC50 (tubulin [1]) [µM] | IC50 (Panc1) [µM] | IC50 (LAPC-4) [µM] | IC50 (ASPC1) [µM] | IC50 (CWR22R) [µM] | IC50 (Miapaca2) [µM] | other results |
| --- | --- | --- | --- | --- | --- | --- | --- | --- | --- | --- | --- | --- | --- | --- | --- | --- | --- | --- |
| > 10 | 5.5 | 6.5 | 7.5 | 6 | 7 | Nc1ccccc1OC=NOC=Nc1ccc(Sc2ncccn2)cc1 [Compound 7b] | 8 |  |  |  |  |  |  |  |  |  |  |  |
| 5.5 | 5.5 | 5.5 | 6.5 | 2.5 | 8 | O=[N+]([O-])c1ccccc1OC=NOC=Nc1ccc([S+]([O-])c2ncc(Br)cn2)cc1 (stereo not drawn) [Compound 8g] | 6.5 |  |  |  |  |  |  |  |  |  |  | IC50 [3]: 2.5 to 8 µM |
|  |  | > 10 |  |  |  | Nc1ccccc1C(=O)NC(=O)Nc1ccc(Oc2nccc(Br)n2)cc1 [Compound 7c] |  | > 10 | 0.75 | > 10 | 0.27 | 36 ± 0.7 | 3.5 | 0.75 | 5.2 | 2 | 0.92 |  |

Second part, the compound before the results:

| Compound | IC50 (Panc1005; Homo sapiens, Panc1005) [µM] | IC50 (Panc203; Homo sapiens, Panc203) [µM] | IC50 (Panc430) [µM] | IC50 (Panc1; Homo sapiens, PANC-1) [µM] | IC50 (ASPC1; Homo sapiens, ASPC1) [µM] | IC50 (Miapaca2; Homo sapiens, MIA PaCa-2) [µM] | IC50 (HS766; Homo sapiens, Hs 766) [µM] | IC50 (Panc1005) [µM] | IC50 (LnCaP) [µM] | IC50 (Panc203) [µM] | IC50 (HS766) [µM] | IC50 (tubulin [1]) [µM] | IC50 (Panc1) [µM] | IC50 (LAPC-4) [µM] | IC50 (ASPC1) [µM] | IC50 (CWR22R) [µM] | IC50 (Miapaca2) [µM] | other results |
| --- | --- | --- | --- | --- | --- | --- | --- | --- | --- | --- | --- | --- | --- | --- | --- | --- | --- | --- |
| Brc1cnc(Sc2ccc(N=CON=COc3ccccc3)cc2)nc1 [Compound 6g] | > 10 | 7.5 | 2 | > 10 | > 10 | 5 | 5.5 |  |  |  |  |  |  |  |  |  |  |  |
| O=C(NC(=O)c1ccccc1[N+](=O)[O-])Nc1ccc(Oc2nccc(Br)n2)cc1 [Compound 6m] |  |  | 10 |  |  |  |  | > 10 | 1 | > 10 | 0.47 | 4.7 | 0.68 | 0.2 | 0.77 | 5 | 0.74 | colchicine binding (% ± SD), inhibition of [3H]colchicine binding (tubulin [2]): 21 ± 5% |
| CC(=O)O[C@@]12CO[C@@H]1C[C@H](O)[C@@]1(C)C(=O)[C@H](O)C3=C(C)[C@@H](OC(=O)[C@H](O)[C@@H](NC(=O)OC(C)(C)C)c4ccccc4)C[C@@](O)([C@@H](OC(=O)c4ccccc4)[C@H]21)C3(C)C [Docetaxel, docetaxel, reference compound] |  |  |  |  |  |  |  |  |  |  |  |  |  |  |  |  |  | efficacy in case 194 ([4]; case with the greatest expression of MAPT): inactive; efficacy in case 185 ([4]; docetaxel 30 mg/kg i.p. once a week for 2 weeks): lower efficacy than 6n; efficacy in case 215 ([4]; low MAPT-expressing case, docetaxel 30 mg/kg i.p. once a week for 2 weeks): particularly efficacious |
